Assay results taken from EP4389107A1, “METHOD OF PREPARATION OF COSMETIC C[…] […] AND COSMETIC C[…] […]” (Aero-Bw K. Domagala Sp. Jawna, priority 2022, dated 2024).
Values joined by “and” are separate entries in the source; they are usually repeats but may differ in a detail not shown here. Equal values may be shown once.

Test system: Salmonella typhimurium TA98
Assay: Ames test, strain TA98
Format: cell-based
Details: positive control at 2 µg/mL

For `O=[N+]([O-])c1ccc2c(c1)Cc1ccccc1-2` [2-nitrofluorene (2-NF), 2-nitrofluorene], which “MOI (Multiplicity of induction compared to baseline)” value is on record?
The value was 6.9 and 5.6.
